Common to all, as to assay type: in vivo, mouse
In one assay the test system is IL-6. Nature of the assay: Serum IL-6 production in mice after single s.c. injection (7TD1 bioassay). To be noted: serum 4 h post injection. The method, then:
Description of Biological Assays Interleukin 6(IL-6) assay for structure function analysis--Test compounds are dissolved in water and administered subcutaneously in 0.2 ml to deliver a dose of 0.1-10 mg/kg. The less soluble compounds are first dissolved in 100% ethanol and then brought to the appropriate concentration in water. Four hours post injection, the mice are bled and the serum is retrieved. The IL-6 dependent cell line 7TDl is used to assay serial dilutions of sera for IL-6 content. 7TDl cells (1×10^4) are placed in microtiter wells and incubated at 37° C. for 72 hours with standard recombinant mouse IL-6 or with dilutions of serum to be tested. Over the last 6 hours, the cells are pulsed with ^3 H-Tdr (μci). Cells are then harvested and the degree of proliferation determined by the uptake of ^3 H-Tdr as measured by liquid scintillation spectrometry. The concentration of IL-6 in serum is calculated from standard curves utilizing recombinant IL-6 from R&D Systems Inc. and are reported in units of IL-6 activity as defined by the manufacturer.

The test system of another assay is CSF. Briefly: Serum colony stimulating factor (CSF) assay in mice. To be noted: serum 4 hours after injection. The method, then: Colony forming assays Granulocyte-Macrophage (CFU-GM)--Mice are treated with 150 mg/kg of 5-Fu and treatment with test compound begins 24 hrs. later. On consecutive days, mice are killed by cervical dislocation and the femurs removed under sterile conditions. Femurs are flushed with 1 ml of ice cold medium (Iscove's supplemented with 20% FCS, 1% penicillin-streptomycin, 1% glutamine and 5×10^-5 M 2-mercaptoethanol). Bone marrow cells (5×10^5) are then plated in 12×75 mm tissue culture plates in 3 ml of warm ararose (3%) in Iscove's medium with 100 Units/ml of recombinant mouse GM-CSF purchased from Genzyme (Boston, Mass.). Plates are incubated for 7 days at 37° C. in 5% CO2. After 7 days, colonies of 50 cells or greater are enumerated under a dissecting microscope.
Bone marrow cells are prepared as described above for the CFU-GM assay. The cells are then incubated in soft agar with an 0.3% final concentration of serum taken from mice 4 hours after injection with test compounds. After 7 days of incubation at 37° C., the number of colony forming (CFU) cells per 10^5 plated bone marrow cells is determined by counting colonies of more than 50 cells under a dissecting microscope. The data are reported as CFU/10^5 bone marrow cells.

Assay [1] has as its system neutrophils. Nature of the assay: Neutrophil recovery in 5-FU treated mice. To be noted: mouse, in vivo. The method, then: Circulating Neutrophil Assay--Mice are treated with 5-FU (150 mg/kg) and beginning 24 hrs. later, treated daily with the test compound. Mice are bled daily by retroorbital puncture in heparinized capillary tubes. Circulating WBC counts are determined by Coulter counter. Blood smears are stained with Wright-Geimsa solution and the percentage circulating neutrophils determined by differential counting under a microscope.
5-Fluorouracil (5-FU) Induced Neutropenia In Mice--Mice are treated ip with 150 mg/kg of the chemotherapy agent 5-FU which induces a severe loss of neutrophils in the peripheral blood 5-6 days later. Twenty-four hrs. after the dose, treatment with the test compounds is initiated. The effect of the test compounds on recovery of neutrophil progenitor cells in the bone marrow is determined by the CFU-GM assay. The recovery of circulating neutrophils is followed by differential staining of the peripheral blood.
*Data from 10 mice/group on day 7 post treatment with 150 mg/kg of 5FU.
Beginning 24 hrs. after 5FU dose, mice were treated daily with test
compound at concentrations indicated. Neutrophil count for normal mice (n
**Mice treated with 5FU and vehicle only.

Assay [2] relates to neutrophils. Briefly: Neutrophil recovery in 5-FU treated mice. To be noted: day 7 post 5FU, n = 6 mice/group, 0 dose 54 ± 22.

For `CCCCCC1CCC(C(=O)NC(C(=O)O)C(C)OC(=O)N[C@@H](CCC[C@@H](N)C(=O)O)C(=O)N[C@H](C)C(=O)O)CC1` (stereo partly drawn) [Example 33, [(R)-6-Carboxy-N^2-[[2-carboxy-1-methyl-2-[[(4-pentylcyclohexyl)carbonyl]amino]ethoxy]carbonyl]-L-lysyl]-D-Alanine], the results for the IL-6 in the assay on IL-6 (0.1 mg/kg s.c.) and with IL-6 (1.0 mg/kg s.c.) were 1651 ± 100 U/ml and 3767 ± 457 U/ml, respectively.
`CCCCCCC(=O)NC(CNC(=O)N[C@@H](CCCC(NC(=O)OC(C)(C)C)C(=O)OC)C(=O)N[C@H](C)C(=O)OC)C(=O)O` (stereo partly drawn) [Example 81, N-N^2-[[[2-carboxy-2-[(1-oxoheptyl)amino]ethyl]amino]carbonyl]-N^6-[(1,1-dimethylethoxy)carbonyl]-6-(methoxycarbonyl)-L-lysyl-D-alanine methyl ester]: the “CSF production, CFU/100,000 Bone Marrow Cells” value (“CSF production” for short) in the assay on CSF (1.0 mg/kg) is recorded as 69 ± 14 CFU/100,000 Bone Marrow Cells; with CSF (10.0 mg/kg), 101 ± 7 CFU/100,000 Bone Marrow Cells. The IL-6 stood at 56 ± 19 U/ml with IL-6 (1.0 mg/kg s.c.) and 199 ± 23 U/ml in the assay on IL-6 (10.0 mg/kg s.c.).
Turning to `CCCCCCC(=O)NC(CNC(=O)N[C@@H](CCCC(NC(=O)OC(C)(C)C)C(=O)O)C(=O)N[C@H](C)C(=O)O)C(=O)O` (stereo partly shown) [Example 83], the “CSF production” value in the assay on CSF (1.0 mg/kg) was 204 ± 9 CFU/100,000 Bone Marrow Cells; in the assay on CSF (10.0 mg/kg), 123 ± 22 CFU/100,000 Bone Marrow Cells. The IL-6 with IL-6 (1.0 mg/kg s.c.) was determined as 332 ± 38 U/ml; in the assay with IL-6 (10.0 mg/kg s.c.) it was 1818 ± 243 U/ml.
Regarding `CCCCCCC(=O)NC(CNC(=O)N[C@@H](CCCC(N)C(=O)O)C(=O)N[C@H](C)C(=O)O)C(=O)O` (stereo partly shown) [Example 84], the “CSF production” value in the assay on CSF (0.1 mg/kg) is reported as 129 ± 14 CFU/100,000 Bone Marrow Cells; in the assay with CSF (1.0 mg/kg), 118 ± 15 CFU/100,000 Bone Marrow Cells; in the assay on CSF (10.0 mg/kg) it was 131 ± 10 CFU/100,000 Bone Marrow Cells. For the same molecule, the “neutrophil recovery in 5-FU treated mice (in words)” value in the assay with neutrophils [1] was “induce neutrophil recovery in 5-FU treated mice”. The values for the Neutrophils/cu. mm. in the assay with neutrophils [2] (1 μg/kg daily), in the assay on neutrophils [2] (10 μg/kg daily) and with neutrophils [2] (100 μg/kg daily) were 427 ± 211 /cu. mm, 570 ± 224 /cu. mm and 2194 ± 629 /cu. mm, respectively. Also, the results for the IL-6 with IL-6 (0.1 mg/kg s.c.), in the assay with IL-6 (1.0 mg/kg s.c.) and in the assay with IL-6 (10.0 mg/kg s.c.) were 1963 ± 97 U/ml, 3865 ± 688 U/ml and 2512 ± 209 U/ml, respectively.
In turn, `CCCCCCC(=O)N[C@H](C(=O)O)[C@H](C)OC(=O)N[C@@H](CCC[C@@H](N)C(=O)O)C(=O)N[C@H](C)C(=O)O` [Example 30, [S-(R*,R*)]-N-(R)-6-carboxy-N^2-[[2-Carboxy-1-methyl-2-[(1-oxoheptyl)amino]ethoxy]carbonyl]-L-lysyl]-D-Alanine] yielded an IL-6 in the assay on IL-6 (0.1 mg/kg s.c.) of 328 ± 107 U/ml.
For `CCCCCCC(=O)N[C@@H](C(=O)O)[C@H](C)OC(=O)N[C@@H](CCC[C@@H](N)C(=O)O)C(=O)N[C@H](C)C(=O)O` [Example 29, [S-(R*,S*)]-N-[(R)-6-carboxy-N^2-[[2-carboxy-1-methyl-2-[(1-oxoheptyl)amino]ethoxy]carbonyl]-L-lysyl]-D-Alanine], the “CSF production” value is reported as 0 ± 0 CFU/100,000 Bone Marrow Cells with CSF (0.1 mg/kg) and 101 ± 46 CFU/100,000 Bone Marrow Cells in the assay on CSF (1.0 mg/kg). The IL-6 was 0 U/ml with IL-6 (0.1 mg/kg s.c.), 203 U/ml in the assay on IL-6 (1.0 mg/kg s.c.) and 537 U/ml in the assay on IL-6 (10.0 mg/kg s.c.).
As to `CCCCCCC(=O)NC(CNC(=O)N[C@@H](CCCC(N)C(=O)OC)C(=O)N[C@H](C)C(=O)OC)C(=O)O` (stereo partly shown) [Example 82], the entries for the “CSF production” value in the assay with CSF (1.0 mg/kg) and with CSF (10.0 mg/kg) were 108 ± 11 CFU/100,000 Bone Marrow Cells and 115 ± 3 CFU/100,000 Bone Marrow Cells, respectively. The IL-6 in the assay on IL-6 (1.0 mg/kg s.c.) worked out at 2181 ± 92 U/ml; in the assay with IL-6 (10.0 mg/kg s.c.), 3188 ± 345 U/ml.
In the case of `CCCCCCC(=O)NC(CNC(=O)N[C@@H](CCCC(N)C(=O)OC)C(=O)N[C@H](C)C(=O)OC)C(=O)OCc1ccccc1` (stereo partly shown) [Example 80], the results for the “CSF production” value in the assay on CSF (1.0 mg/kg) and with CSF (10.0 mg/kg) were 91 ± 3 CFU/100,000 Bone Marrow Cells and 121 ± 9 CFU/100,000 Bone Marrow Cells, respectively. For the same molecule, the IL-6 is 1712 ± 168 U/ml in the assay on IL-6 (1.0 mg/kg s.c.) and 3624 ± 611 U/ml with IL-6 (10.0 mg/kg s.c.).
`CCCCOc1ccc(CC(=O)NC(C(=O)O)C(C)OC(=O)N[C@@H](CCC[C@@H](N)C(=O)O)C(=O)N[C@H](C)C(=O)O)cc1` (stereo partly drawn) [Example 34, N-[N^2-[[2-[[(4-Butoxyphenyl)acetyl]amino]-2-carboxy-1-methylethoxy]carbonyl]-(R)-6-carboxy-L-lysyl]-D-Alanine]: the IL-6 in the assay on IL-6 (0.1 mg/kg s.c.) was found to be 3610 ± 347 U/ml; in the assay with IL-6 (1.0 mg/kg s.c.) it was 5063 ± 302 U/ml.
As for `CCCCCCC(=O)N[C@H](C(=O)O)[C@@H](C)OC(=O)N[C@@H](CCC[C@@H](N)C(=O)O)C(=O)N[C@H](C)C(=O)O` (relative stereo) [Example 31, R-(R*,S*)]-N-(R)-6-carboxy-N^2-[[2-carboxy-1-methyl-2-[(1-oxoheptyl)amino]ethoxy]carbonyl]-L-lysyl]-D-Alanine], the IL-6 in the assay with IL-6 (0.1 mg/kg s.c.) is given as 294 ± 24 U/ml.

Source of the values: patent publication US5312831A, “Urethanes and ureas that induce cytokine production” (American Cyanamid Company, priority 1993, dated 1994).
